Measured values taken from patent publication US9994830B2, “Methods for modulating cyclic nucleotide-mediated signaling in cardiac myocytes and compositions” (The United States of America as Represented by the …, priority 2014, dated 2018).

Key:
[1] = test system: PLB; assay: cAMP-dependent phosphorylation of endogenous PLB in human myocardial membranes; assay type: biochemical; conditions: 0.1 μM cAMP; cilostamide 1 μM or rolipram 10 μM; human left ventricular microsomes
Description: (§1) FIG. 7 a-f. cAMP, PKA, and PDE3-inhibition increase SERCA2 activity and Ca^2+ uptake. A. After incubation of SR fractions (20 μg) in the absence or presence of the indicated concentrations of ATP and/or cAMP, without or with cilostamide or rolipram, endogenous PLB, phosphorylated PLB, and ρ-actin were detected after SDS-PAGE and immunoblotting. Data are representative of three experiments. In these and other Western blots, PLB is predominantly monomeric, most likely due to the heating of samples, prior to electrophoresis, under reducing conditions (buffer containing β-mercatoethanol, DTT, and SDS). B. Bar graph summarizing pSer16PLB/PLB total ratios. *P<0.01 vs. control (n=3 independent experiments). C. PDE activity in human cardiac SR fractions, expressed as specific activity (pmol cAMP hydrolyzed/min/mg). Results are presented as mean+/−SEM (n=3 preparations). PDE3 activity was determined as the cilostamide-sensitive fraction, and PDE4 activity as the rolipram-sensitive fraction. […] D. After incubation of SR fractions without or with the indicated concentrations of cAMP (0-10 μM), ^45Ca^2+ uptake was measured in the presence of 0.5 μM free Ca^2+. Results are presented as % increase due to cAMP, with basal Ca^2+ uptake (9.4+/−0.8 nmol/mg/min, n=3) taken as 100%. […]

[2] = test system: neonatal rat ventricular myocytes; assay: Hypertrophy of neonatal rat ventricular myocytes (PDE3 inhibitor treatment or transfection with dominant-negative constructs, with or without norepinephrine); assay type: cell-based; conditions: neonatal rat ventricular myocytes; treatment or transfection alone
From the text: FIG. 5. Anti-hypertrophic actions of PDE3A1-selective targeting in neonatal rat ventricular myocytes.
In contrast, expression of the PDE3A1 dominant negative has no pro-hypertrophic effect, and actually blocks the hypertrophic responses to norepinephrine.
In neonatal rat ventricular myocytes, conventional PDE3 inhibition promotes cellular hypertrophy, which may be associated with adverse consequences in heart failure. We questioned what effect PDE3A1-selective inhibition would have. […] The F1004A substitution is a change in the amino acid sequence of PDE3A1 at amino acid position 1004 from a phenylalanine to an alanine. We transfected neonatal rat ventricular myocytes with this dominant-negative construct to competitively block the protein-protein interactions that localize PDE3A1 to specific intracellular microdomains. […] To our knowledge, this is the first direct evidence that conventional PDE3 inhibition and isoform-selective targeting have different effects in cardiac myocytes, and that some of the adverse consequences of nonselective PDE3 inhibition may be averted by isoform-selective targeting involving protein-protein interactions.

[3] = test system: SR vesicles; assay: 45Ca2+ uptake in SR vesicles from human myocardium; assay type: biochemical; conditions: cAMP 3 μM, cilostamide 1 μM; SR fractions
Description: as §1, with “B. Bar graph summarizing pSer16PLB/PLB total ratios. *P<0.01 vs. control (n=3 independent experiments). C.” left out, “Results are presented as mean+/−SEM (n=3 preparations).” left out, “Ca^2+.” for “Ca^2+. Results are presented as % increase due to cAMP, with basal Ca^2+ uptake (9.4+/−0.8 nmol/mg/min, n=3) taken as 100%.”
Oxalate-dependent Ca^2+ uptake was quantified as described previously (17). […] After washing four times with 4 ml buffer containing 140 mM KCl, 10 mM NaCl, 2 mM MgCl2, 1 mM CaCl2 and 50 mM imidazole-HCl, (pH 7.0), radioactivity retained on the filters was quantified by liquid scintillation counting. Free [Ca^2+] was calculated using a program obtained at http://www.stanford.edu/˜cpatton/webmaxc/webmaxcS.htm.

Row | SMILES | phosphorylation of PLB at S16 by endogenous PKA [1] | cellular hypertrophy [2] | effect on cAMP-increased ATP-dependent, oxalate-supported Ca2+ uptake [3]
1 | COc1ccc(C2CNC(=O)C2)cc1OC1CCCC1 (stereo not shown) [rolipram] | no effect | – | –
2 | CN(C(=O)CCCOc1ccc2[nH]c(=O)ccc2c1)C1CCCCC1 [cilostamide] | stimulated | promote myocyte hypertrophy | potentiated
